From ChEMBL document CHEMBL1125129, “Design of potent and selective linear antagonists of vasopressor (V1-receptor) responses to vasopressin” (J Med Chem, 1990)

Tests used:
[1] = target: Vasopressin V2 receptor (Rattus norvegicus) (UniProt Q00788); experiment: Effective dose was determined for Vasopressin V2 receptor antagonistic activity in vivo in anesthetized rats; assay type: functional, organism-based
[2] = target: Vasopressin V2 receptor (Rattus norvegicus) (UniProt Q00788); experiment: Selectivity ratio of antidiuretic Vasopressin V2 receptor ED /[…] receptor ED; conditions: Urine
[3] = target: Vasopressin V1 receptor (Rattus norvegicus) (UniProt P48974+P30560); experiment: Effective dose was determined for Vasopressin V1 receptor antagonistic activity in vivo in anesthetized rats; assay type: functional, organism-based
[4] = target: Vasopressin V1 receptor (Rattus norvegicus, UniProt P48974+P30560); experiment: pA2 value was determined for Vasopressin V1 receptor antagonistic activity in vivo in anesthetized rats; assay type: functional, organism-based
[5] = test system: Rattus norvegicus; experiment: pA2 value was determined for antidiuretic V2 antagonistic activity in vivo in anesthetized rats pA2 value was determined for antidiuretic V2 antagonistic activity in vivo in anesthetized rats; assay type: functional, organism-based; conditions: Urine, read-out: pA2 (converted)

Chain of Vasopressin V2 receptor (Rattus norvegicus) (Q00788 whole entry): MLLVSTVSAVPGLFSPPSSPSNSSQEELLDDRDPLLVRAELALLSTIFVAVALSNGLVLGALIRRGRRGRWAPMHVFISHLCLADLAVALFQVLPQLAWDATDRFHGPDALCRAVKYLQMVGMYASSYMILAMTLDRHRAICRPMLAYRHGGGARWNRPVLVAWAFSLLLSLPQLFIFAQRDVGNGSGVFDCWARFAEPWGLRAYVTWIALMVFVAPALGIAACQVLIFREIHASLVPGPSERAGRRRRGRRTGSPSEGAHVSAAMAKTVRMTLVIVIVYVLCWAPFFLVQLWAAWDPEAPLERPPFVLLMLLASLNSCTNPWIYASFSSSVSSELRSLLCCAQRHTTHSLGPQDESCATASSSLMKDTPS
Chain of Vasopressin V1 receptor (Rattus norvegicus) (P30560 whole entry, looked up): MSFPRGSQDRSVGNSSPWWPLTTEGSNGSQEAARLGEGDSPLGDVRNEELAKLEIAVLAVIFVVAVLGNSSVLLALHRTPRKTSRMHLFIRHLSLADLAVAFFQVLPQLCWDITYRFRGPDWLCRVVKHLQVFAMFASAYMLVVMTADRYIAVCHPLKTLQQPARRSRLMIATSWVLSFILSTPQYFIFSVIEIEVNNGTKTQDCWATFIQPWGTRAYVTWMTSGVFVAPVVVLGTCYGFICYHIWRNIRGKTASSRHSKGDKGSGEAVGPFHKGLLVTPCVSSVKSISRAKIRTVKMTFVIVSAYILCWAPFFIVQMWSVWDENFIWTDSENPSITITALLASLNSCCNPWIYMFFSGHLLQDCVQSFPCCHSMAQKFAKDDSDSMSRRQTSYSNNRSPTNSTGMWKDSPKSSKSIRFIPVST
Chain of Vasopressin V1 receptor (Rattus norvegicus) (P48974 whole entry, looked up): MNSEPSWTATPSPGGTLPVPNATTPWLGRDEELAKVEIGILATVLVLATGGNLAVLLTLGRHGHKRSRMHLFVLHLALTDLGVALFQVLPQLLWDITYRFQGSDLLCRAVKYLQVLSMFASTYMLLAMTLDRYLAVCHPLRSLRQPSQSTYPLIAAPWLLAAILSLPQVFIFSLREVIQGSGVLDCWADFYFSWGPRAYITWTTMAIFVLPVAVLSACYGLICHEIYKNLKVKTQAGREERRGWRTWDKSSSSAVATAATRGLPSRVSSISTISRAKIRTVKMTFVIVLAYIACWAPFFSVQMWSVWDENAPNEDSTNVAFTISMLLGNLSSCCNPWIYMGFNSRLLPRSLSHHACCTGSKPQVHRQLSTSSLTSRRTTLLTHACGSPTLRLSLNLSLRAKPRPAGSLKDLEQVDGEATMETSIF

Structure (SMILES)	Effective dose [1]	Ratio [2]	Effective dose [3]	pA2 [4]	Kb [5]
CCOc1ccc(C[C@@H](NC(=O)CC23CC4CC(CC(C4)C2)C3)C(=O)N[C@@H](Cc2ccccc2)C(=O)N[C@H](C(=O)N[C@@H](CC(N)=O)C(=O)N[C@@H](CCCN=C(N)N)C(=O)N(C)[C@@H](C)C(=O)N[C@@H](CCCN=C(N)N)C(N)=O)C(C)C)cc1	1.2 nM/kg	3.2	0.37 nM/kg	8.28	17 nM
CCOc1ccc(C[C@@H](NC(=O)CC23CC4CC(CC(C4)C2)C3)C(=O)N[C@@H](Cc2ccccc2)C(=O)N[C@H](C(=O)N[C@@H](CC(N)=O)C(=O)N[C@@H](CCCN)C(=O)N2CCC[C@H]2C(=O)N[C@@H](CCCN=C(N)N)C(N)=O)C(C)C)cc1				7.33	15.5 nM
CCOc1ccc(C[C@H]2NC(=O)CC3(CCCCC3)SSC[C@@H](C(=O)N3CCC[C@H]3C(=O)N[C@@H](CCCN=C(N)N)C(N)=O)NC(=O)[C@H](CC(N)=O)NC(=O)[C@H](C(C)C)NC(=O)[C@H](Cc3ccccc3)NC2=O)cc1				8.17	20.4 nM

The next lines start with results.

Effective dose [1]	Ratio [2]	Effective dose [3]	pA2 [4]	Structure (SMILES)	Kb [5]
			7.64	CCOc1ccc(C[C@@H](NC(=O)CC23CC4CC(CC(C4)C2)C3)C(=O)N[C@@H](Cc2ccccc2)C(=O)N[C@H](C(=O)N[C@@H](CC(N)=O)C(=O)N[C@@H](CCCN)C(=O)N2CCC[C@H]2C(=O)N[C@@H](CCCN=C(N)N)C(=O)N[C@@H](CCCN=C(N)N)C(N)=O)C(C)C)cc1	~12.6 nM
			9.05	CCOc1ccc(C[C@@H](NC(=O)Cc2ccccc2)C(=O)N[C@@H](Cc2ccccc2)C(=O)N[C@@H](CCC(N)=O)C(=O)N[C@@H](CC(N)=O)C(=O)N[C@@H](CCCCN)C(=O)N2CCC[C@H]2C(=O)N[C@@H](CCCN=C(N)N)C(N)=O)cc1	501 nM
			8.93	COc1ccc(C[C@@H](NC(=O)Cc2ccccc2)C(=O)N[C@@H](Cc2ccccc2)C(=O)N[C@@H](CCC(N)=O)C(=O)N[C@@H](CC(N)=O)C(=O)N[C@@H](CCCCN)C(=O)N2CCC[C@H]2C(=O)N[C@@H](CCCN=C(N)N)C(N)=O)cc1	> 316 nM
